Test results as given in patent publication US6358885B1, “Substituted phenylheterocyclic herbicides” (Mississippi State University, priority 1992, dated 2002).

Key:
Assay in all cases: Test B preemergence/postemergence greenhouse plant response rating 0 to 10
cotton = format: in vivo, Gossypium hirsutum; settings: for Plant response rating, Cotton: 0 to 10 scale
How it was run: (§1)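 Planted seeds are treated preemergence with compound dissolved in a non-phytotoxic solvent, while postemergence applications go onto plants of two to eighteen cm. Plants stay in the greenhouse twelve to sixteen days and are then rated visually relative to controls.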

wild buckwheat = format: in vivo, Polygonum convolvulus; settings: 0 to 10 scale
How it was run: as §1

rice = format: in vivo, Oryza sativa; settings: 0 to 10 scale
How it was run: as §1

cheatgrass = format: in vivo, Bromus secalinus; settings: for Plant response rating, Cheatgrass: 0 to 10 scale
How it was run: as §1

velvetleaf = format: in vivo, Abutilon theophrasti; settings: 0 to 10 scale
How it was run: as §1

purple nutsedge = format: in vivo, Cyperus rotundus; settings: 0 to 10 scale
How it was run: as §1

soybean = format: in vivo, Glycine max; settings: 0 to 10 scale
How it was run: as §1

lambsquarters = format: in vivo, Chenopodium album; settings: 0 to 10 scale
How it was run: as §1

| SMILES | Plant response rating (0 to 10 scale), Cotton (cotton; POSTEMERGENCE, Rate 50 g/ha) | Plant response rating, Cotton (cotton; POSTEMERGENCE, Rate 200 g/ha) | Plant response rating, Cotton (cotton; PREEMERGENCE, Rate 50 g/ha) | Plant response rating, Cotton (cotton; Rate 200 g/ha, PREEMERGENCE) | Plant response rating, Wild buckwheat (wild buckwheat; POSTEMERGENCE, Rate 50 g/ha) | Plant response rating, Wild buckwheat (wild buckwheat; POSTEMERGENCE, Rate 200 g/ha) | Plant response rating, Wild buckwheat (wild buckwheat; PREEMERGENCE, Rate 50 g/ha) | Plant response rating, Wild buckwheat (wild buckwheat; Rate 200 g/ha, PREEMERGENCE) | Plant response rating, Rice (rice; POSTEMERGENCE, Rate 50 g/ha) | Plant response rating, Rice (rice; POSTEMERGENCE, Rate 200 g/ha) | Plant response rating, Rice (rice; PREEMERGENCE, Rate 50 g/ha) | Plant response rating, Rice (rice; Rate 200 g/ha, PREEMERGENCE) | Plant response rating (0 to 10 scale), Cheatgrass (cheatgrass; POSTEMERGENCE, Rate 50 g/ha) | Plant response rating, Cheatgrass (cheatgrass; POSTEMERGENCE, Rate 200 g/ha) | Plant response rating, Cheatgrass (cheatgrass; PREEMERGENCE, Rate 50 g/ha) | Plant response rating, Cheatgrass (cheatgrass; Rate 200 g/ha, PREEMERGENCE) | Plant response rating, Velvetleaf (velvetleaf; POSTEMERGENCE, Rate 50 g/ha) | Plant response rating, Velvetleaf (velvetleaf; POSTEMERGENCE, Rate 200 g/ha) | Plant response rating, Velvetleaf (velvetleaf; PREEMERGENCE, Rate 50 g/ha) | Plant response rating, Velvetleaf (velvetleaf; Rate 200 g/ha, PREEMERGENCE) | further results |
| --- | --- | --- | --- | --- | --- | --- | --- | --- | --- | --- | --- | --- | --- | --- | --- | --- | --- | --- | --- | --- | --- |
| CCCOc1cc(-c2nn3c(c2Cl)CCCC3)c(F)cc1Cl [Compound 23] | 10 | 10 | 5 | 5 | 10 | 10 | 0 | 10 | 4 | 6 | 0 | 2 | 6 | 8 | 4 | 6 | 9 | 10 | 1 | 10 | Plant response rating, Nutsedge (purple nutsedge; POSTEMERGENCE, Rate 50 g/ha): 2; Plant response rating, Nutsedge (purple nutsedge; POSTEMERGENCE, Rate 200 g/ha): 3; Plant response rating, Nutsedge (purple nutsedge; PREEMERGENCE, Rate 50 g/ha): 0; Plant response rating, Nutsedge (purple nutsedge; Rate 200 g/ha, PREEMERGENCE): 0; Plant response rating, Soybean (soybean; POSTEMERGENCE, Rate 50 g/ha): 8; Plant response rating, Soybean (soybean; POSTEMERGENCE, Rate 200 g/ha): 9; Plant response rating, Soybean (soybean; PREEMERGENCE, Rate 50 g/ha): 1; Plant response rating, Soybean (soybean; Rate 200 g/ha, PREEMERGENCE): 7; Plant response rating, Lambsquarter (lambsquarters; POSTEMERGENCE, Rate 50 g/ha): 10; Plant response rating, Lambsquarter (lambsquarters; POSTEMERGENCE, Rate 200 g/ha): 10; Plant response rating, Lambsquarter (lambsquarters; PREEMERGENCE, Rate 50 g/ha): 10; Plant response rating, Lambsquarter (lambsquarters; Rate 200 g/ha, PREEMERGENCE): 10 |
| Fc1cc(Cl)c(OC2CCCC2)cc1-c1nn2c(c1Cl)CCCC2 [Compound 24] | 10 | 10 | 3 | 8 | 10 | 10 | 3 | 5 | 5 | 5 | 0 | 0 | 3 | 5 | 0 | 4 | 10 | 10 | 1 | 9 | Plant response rating, Nutsedge (purple nutsedge; POSTEMERGENCE, Rate 50 g/ha): 3; Plant response rating, Nutsedge (purple nutsedge; POSTEMERGENCE, Rate 200 g/ha): 4; Plant response rating, Nutsedge (purple nutsedge; PREEMERGENCE, Rate 50 g/ha): 0; Plant response rating, Nutsedge (purple nutsedge; Rate 200 g/ha, PREEMERGENCE): 0; Plant response rating, Soybean (soybean; POSTEMERGENCE, Rate 50 g/ha): 6; Plant response rating, Soybean (soybean; POSTEMERGENCE, Rate 200 g/ha): 8; Plant response rating, Soybean (soybean; PREEMERGENCE, Rate 50 g/ha): 0; Plant response rating, Soybean (soybean; Rate 200 g/ha, PREEMERGENCE): 2; Plant response rating, Lambsquarter (lambsquarters; POSTEMERGENCE, Rate 50 g/ha): 9; Plant response rating, Lambsquarter (lambsquarters; POSTEMERGENCE, Rate 200 g/ha): 10; Plant response rating, Lambsquarter (lambsquarters; PREEMERGENCE, Rate 50 g/ha): 9; Plant response rating, Lambsquarter (lambsquarters; Rate 200 g/ha, PREEMERGENCE): 10 |
| CCS(=O)(=O)Oc1cc(-c2nn3c(c2Cl)CCCC3)c(F)cc1Cl [Compound 25] | 10 | 10 | 4 | 5 | 10 | 10 | 8 | 10 | 4 | 9 | 0 | 0 | 3 | 3 | 0 | 3 | 8 | 10 | 1 | 10 | Plant response rating, Nutsedge (purple nutsedge; POSTEMERGENCE, Rate 50 g/ha): 2; Plant response rating, Nutsedge (purple nutsedge; POSTEMERGENCE, Rate 200 g/ha): 8; Plant response rating, Nutsedge (purple nutsedge; PREEMERGENCE, Rate 50 g/ha): 0; Plant response rating, Nutsedge (purple nutsedge; Rate 200 g/ha, PREEMERGENCE): 0; Plant response rating, Soybean (soybean; POSTEMERGENCE, Rate 50 g/ha): 8; Plant response rating, Soybean (soybean; POSTEMERGENCE, Rate 200 g/ha): 4; Plant response rating, Soybean (soybean; PREEMERGENCE, Rate 50 g/ha): 0; Plant response rating, Soybean (soybean; Rate 200 g/ha, PREEMERGENCE): 0; Plant response rating, Lambsquarter (lambsquarters; POSTEMERGENCE, Rate 50 g/ha): 9; Plant response rating, Lambsquarter (lambsquarters; POSTEMERGENCE, Rate 200 g/ha): 10; Plant response rating, Lambsquarter (lambsquarters; PREEMERGENCE, Rate 50 g/ha): 9; Plant response rating, Lambsquarter (lambsquarters; Rate 200 g/ha, PREEMERGENCE): 10 |
